From ChEMBL document CHEMBL1132836, “2-Aryl tryptamines: selective high-affinity antagonists for the h5-HT2A receptor” (Bioorg Med Chem Lett, 2000)
pKi: −log10 of the molar value.

What was measured:
[1] = target: D(2) dopamine receptor (Homo sapiens, UniProt P14416); experiment: biochemical
Description: Displacement of [3H]spiperone from CHO cells expressing human Dopamine receptor D2.

[2] = target: 5-hydroxytryptamine receptor 2A (Homo sapiens, UniProt P28223); experiment: Displacement of [3H]ketanserin from CHO cells expressing human 5-hydroxytryptamine 2A receptor.; assay type: cell-based
[3] = target: T1, 5-hydroxytryptamine receptor 2C (Homo sapiens, UniProt P28335); experiment: Displacement of [H]-mesulergine from CHO cells expressing human 5-hydroxytryptamine 2C receptor.; assay type: cell-based
T1 sequence (P28335 whole entry): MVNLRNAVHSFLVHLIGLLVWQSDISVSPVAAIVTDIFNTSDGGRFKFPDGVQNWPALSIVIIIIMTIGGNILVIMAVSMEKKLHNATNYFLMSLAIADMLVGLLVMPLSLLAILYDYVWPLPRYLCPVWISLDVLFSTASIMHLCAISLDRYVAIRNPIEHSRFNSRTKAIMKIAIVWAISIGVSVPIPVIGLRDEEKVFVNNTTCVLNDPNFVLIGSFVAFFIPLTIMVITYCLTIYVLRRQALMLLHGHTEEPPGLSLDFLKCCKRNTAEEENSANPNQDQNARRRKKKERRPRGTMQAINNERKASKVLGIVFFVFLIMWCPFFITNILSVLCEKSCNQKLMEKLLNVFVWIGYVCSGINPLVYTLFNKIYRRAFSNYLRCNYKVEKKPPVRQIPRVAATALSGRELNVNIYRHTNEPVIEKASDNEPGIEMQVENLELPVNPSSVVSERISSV

SMILES	pKi [1]	pKi [2]	pKi [3]
CCN(CC)CCc1c(-c2ccccc2)[nH]c2ccccc12	< 6.00	8.55	6.80
c1ccc(-c2[nH]c3ccccc3c2CCN2CCC2)cc1	< 6.00	7.36	< 6.00
C[C@@H]1CCCCN1CCc1c(-c2ccccc2)[nH]c2ccccc12	7.68	9.74	7.44
c1ccc(-c2[nH]c3ccccc3c2CCN2CCCC2)cc1	< 6.00	8.05	6.59
C[C@H]1CCCCN1CCc1c(-c2ccccc2)[nH]c2ccccc12	6.54	8.40	6.64
CCN(C)CCc1c(-c2cccc([N+](=O)[O-])c2)[nH]c2ccccc12	7.41	9.85	7.44
c1ccc(-c2[nH]c3ccccc3c2CCN2CCCCC2)cc1	6.05	8.59	6.57
CN(C)CCc1c(-c2ccccc2)[nH]c2ccccc12	< 6.00	8.36	6.74
CCN(C)CCc1c(-c2ccco2)[nH]c2ccccc12	< 6.00	< 6.00	< 6.00
